Data published in PubChem BioAssay AID1996.
≈ marks a conversion by molar mass, not a printed value.

Conditions: buffer; pH 7.4; 200.0 µM
For `O=C(Cn1c(NCCO)nc2ccccc21)Nc1cccc(S(=O)(=O)N2CCCC2)c1`, the solubility kinetic was 63.1 µg/mL (≈ 142 µM).
Work on `Cc1ccc(CC(=O)Nc2nccs2)cc1` yielded a solubility kinetic of 29.8 µg/mL (≈ 128 µM).
With `CN(C)S(=O)(=O)c1cccc(NC(=O)COC(=O)[C@H](Cc2ccccc2)NC(=O)c2ccco2)c1` the solubility kinetic was 24.2 µg/mL (≈ 48.4 µM).
`CCOc1ccc(NC(=O)c2ccc3[nH]c(=O)c(=O)[nH]c3c2)cc1` showed a solubility kinetic of 4.8 µg/mL (≈ 14.8 µM).
`CC(=O)C1=C(O)C(=O)N(c2ccc(O)cc2)C1c1cccc([N+](=O)[O-])c1` (stereo not given) showed a solubility kinetic of over 53.1 µg/mL.
In the case of `Cc1ccc(-c2[nH]c3ccccc3c2SCCN)cc1`, the solubility kinetic is reported as over 42.4 µg/mL.
For `Cc1ccc(SCc2cn3ccccc3n2)cc1`, the solubility kinetic was 37 µg/mL (≈ 145 µM).
In the case of `CC(=O)c1sc(NC(=O)c2ccc(C)c(C)c2)nc1C`, the solubility kinetic is reported as under 0.3 µg/mL.
Work on `CCOc1ccc(C(=O)NCC2CCN(CC3CCCCC3)CC2)cc1` yielded a solubility kinetic of over 53.8 µg/mL.
Work on `CCCn1c(SCC(=O)Nc2ccc(Cl)cc2F)nc(O)cc1=O` yielded a solubility kinetic of over 55.8 µg/mL.
Compound `CCOc1ccc(CCNC(=O)Nc2ccccc2)cc1OCC` has a solubility kinetic of 5.9 µg/mL (≈ 18 µM).
With `Cc1c(C(=O)NNC(=O)c2cccnc2)cccc1[N+](=O)[O-]` the solubility kinetic was over 45 µg/mL.
Work on `COc1ccc(Cc2n[nH]c(=S)o2)cc1` yielded a solubility kinetic of over 33.3 µg/mL.
Compound `COc1ccc(N2CCN(C(=O)CN3c4cccc5cccc(c45)S3(=O)=O)CC2)cc1` has a solubility kinetic of 2.3 µg/mL (≈ 5.26 µM).
`CC(C)(CNC(=O)CCC1CCCC1)CNC(=O)CCC1CCCC1` showed a solubility kinetic of 27.1 µg/mL (≈ 77.3 µM).
Work on `O=C(O)c1ccccc1C(=O)N1CCN(S(=O)(=O)c2cccc(C(F)(F)F)c2)CC1` yielded a solubility kinetic of over 66.4 µg/mL.
In the case of `O=C1NC(C(F)(F)F)(C(F)(F)F)N=C2SC=CN12`, the solubility kinetic is reported as 41.6 µg/mL (≈ 143 µM).
In the case of `OCCN(CC#CCC(O)(c1ccccc1)C1CCCC1)CCO` (stereo not given), the solubility kinetic is reported as over 49.7 µg/mL.
In the case of `CCN(CC(=O)N1CCCCC1)S(=O)(=O)c1ccccc1`, the solubility kinetic is reported as 42.4 µg/mL (≈ 137 µM).
With `O=C(Nc1cc(S(=O)(=O)Nc2ccccc2F)ccc1Cl)c1ccc(F)cc1F` the solubility kinetic was 2.5 µg/mL (≈ 5.67 µM).
In the case of `CN(CC(=O)Nc1ccc(Cl)c(Cl)c1)C(=O)C1CCC1`, the solubility kinetic is reported as over 47.3 µg/mL.
In the case of `O=S(=O)(Nc1ccc(Br)cn1)c1ccc2ccccc2c1`, the solubility kinetic is reported as 1.3 µg/mL (≈ 3.58 µM).
Work on `CC(C)C(=O)Nc1ccc(-c2nc3ccccc3c(=O)o2)cc1` yielded a solubility kinetic of 16.7 µg/mL (≈ 54.2 µM).
For `COc1ccc2[nH]cc(CCNC(=O)c3ccc4ccccc4n3)c2c1`, the solubility kinetic was 1.6 µg/mL (≈ 4.63 µM).
With `CC(C)(C)c1cc(CCC(=O)NCC2CCCO2)cc(C(C)(C)C)c1O` (stereo not given) the solubility kinetic was 20.2 µg/mL (≈ 55.9 µM).
Compound `CCc1ccc(NC(=O)NCCCN2CCCC2=O)cc1` has a solubility kinetic of over 43.4 µg/mL.
Compound `CC1CN(C2=NC(=O)/C(=C/c3ccncc3)S2)CC(C)O1` (stereo not given) has a solubility kinetic of over 45.5 µg/mL.
`CCNc1ccc([N+](=O)[O-])cc1` gave a solubility kinetic of 19.9 µg/mL (≈ 120 µM).
With `CCc1cccc(C)c1NS(=O)(=O)Cc1ccccc1` the solubility kinetic was over 43.4 µg/mL.
In the case of `S=C(c1ccc(-c2ccc(Cl)cc2Cl)o1)N1CCCC1`, the solubility kinetic is reported as under 0.7 µg/mL.
In the case of `O=C(NC12CC3CC(CC(C3)C1)C2)N1CCN(c2ccccc2)CC1`, the solubility kinetic is reported as 12.7 µg/mL (≈ 37.4 µM).
Work on `NC(=O)c1c(NC(=O)c2ccccc2F)sc2c1CCCC2` yielded a solubility kinetic of 3 µg/mL (≈ 9.42 µM).
`CCN(CC)S(=O)(=O)c1ccc(N)cc1` gave a solubility kinetic of over 34.2 µg/mL.
`Cc1nc([N+](=O)[O-])c(C(=O)O)n1C` showed a solubility kinetic of over 27.8 µg/mL.
For `COc1ccc(OC(=O)c2cnc3n(c2=O)CCS3)cc1`, the solubility kinetic was 35 µg/mL (≈ 115 µM).
In the case of `O=C1C(=O)c2ccccc2C(O)=C1c1cccc([N+](=O)[O-])c1`, the solubility kinetic is reported as over 44.3 µg/mL.
Compound `CCOc1cc(-c2nc3n(c(=O)c2C#N)CCS3)ccc1O` has a solubility kinetic of 5.7 µg/mL (≈ 18.1 µM).
For `O=C(O/N=C1\CCCc2ccccc21)c1cccs1`, the solubility kinetic was under 0.6 µg/mL.
`COc1cccc(C(=O)Nc2ccc(C(=O)NCC3CCCO3)cc2)c1` (stereo not given) showed a solubility kinetic of 45.2 µg/mL (≈ 128 µM).
For `CN(Cc1nc(-c2cccc(Cl)c2)no1)C1CCOCC1`, the solubility kinetic was 36.9 µg/mL (≈ 120 µM).
Compound `NC(=O)c1ccsc1NC(=O)CSc1ncnc2sccc12` has a solubility kinetic of 6 µg/mL (≈ 17.1 µM).
In the case of `Cc1cc(=O)oc2cc(NC(=S)NCc3cccnc3)ccc12`, the solubility kinetic is reported as 8.9 µg/mL (≈ 27.4 µM).
In the case of `c1ccc2[nH]c(SCC3CCCCO3)nc2c1` (stereo not given), the solubility kinetic is reported as over 37.3 µg/mL.
With `COc1ccccc1-c1nc2cc(Cl)ccc2c(=O)n1O` the solubility kinetic was over 45.4 µg/mL.
Work on `COc1ccc2c(C)cc(SCC(=O)NC3CCCCC3)nc2c1` yielded a solubility kinetic of 1.3 µg/mL (≈ 3.77 µM).
Work on `O=C(c1cc2cc(Cl)ccc2o1)N1CCCC1` yielded a solubility kinetic of 29.6 µg/mL (≈ 119 µM).
`Cl.c1ccc2c(c1)CC(N1CCCCC1)c1ccccc1S2` (stereo not given) gave a solubility kinetic of 1.8 µg/mL.
In the case of `COc1ccc(S(=O)(=O)Nc2cc3c4c(c2)CC(=O)N4CCC3)cc1`, the solubility kinetic is reported as 50 µg/mL (≈ 140 µM).
For `Cc1cc(=O)[nH]c(SC(C)C(=O)Nc2cccc3ccccc23)n1` (stereo not given), the solubility kinetic was 42.7 µg/mL (≈ 126 µM).
With `CN(Cc1ccccc1)C(=O)COc1ccc(C(C)(C)C)cc1` the solubility kinetic was under 0.7 µg/mL.
`COC(=O)CNC(=O)CCc1nnc(C2(c3ccc(Cl)cc3)CCC2)o1` showed a solubility kinetic of over 56.7 µg/mL.
`O=C(Nc1ccc(NC(=O)C2CC2)cc1)c1cccs1` showed a solubility kinetic of 3.3 µg/mL (≈ 11.5 µM).
With `Cc1c(O)nc2ccccn2c1=O` the solubility kinetic was over 26.4 µg/mL.
For `O=C1Nc2ccccc2C1C(C[N+](=O)[O-])c1ccccc1` (stereo not given), the solubility kinetic was over 42.3 µg/mL.
In the case of `COc1ccccc1NC(=O)CNC(c1ccccc1)c1ccccc1`, the solubility kinetic is reported as 1.2 µg/mL (≈ 3.46 µM).
Compound `O=S(=O)(NCc1ccco1)c1ccc(Cl)s1` has a solubility kinetic of over 41.7 µg/mL.
In the case of `Cc1cc(C)n(CC(=O)Nc2ccc3c(c2)OCO3)c(=O)c1C#N`, the solubility kinetic is reported as 8.4 µg/mL (≈ 25.8 µM).
`CN1CCN(CCCCOc2cccc3ccccc23)CC1.Cl` showed a solubility kinetic of over 50.2 µg/mL.
In the case of `Cc1ccc(NC(=O)N2CCCc3ccccc32)cc1C`, the solubility kinetic is reported as 29 µg/mL (≈ 103 µM).
Work on `COc1ccccc1NC(=O)c1c(O)c2ccccc2[nH]c1=O` yielded a solubility kinetic of 1.2 µg/mL (≈ 3.87 µM).
Compound `Oc1ccccc1-c1cncn1Cc1ccccc1` has a solubility kinetic of 11.4 µg/mL (≈ 45.5 µM).
With `CCOC(=O)c1cc2c(ccc3nc(C)c(C)c32)[nH]c1C` the solubility kinetic was under 0.3 µg/mL.
In the case of `Cc1ccc(NCC(=O)N/N=C/c2ccc(C(=O)O)cc2)cc1`, the solubility kinetic is reported as over 46.7 µg/mL.
Compound `O=[N+]([O-])c1ccccc1CN1CCN(Cc2ccc3ccccc3c2)CC1` has a solubility kinetic of 3.9 µg/mL (≈ 10.8 µM).
With `NC(=O)C1CCN(C(=O)Cc2ccc(-c3ccccc3)cc2)CC1` the solubility kinetic was over 48.4 µg/mL.
For `Nc1ccc2nc(-c3cccc(-c4nc5ccc(N)cc5[nH]4)n3)[nH]c2c1`, the solubility kinetic was 21.5 µg/mL (≈ 63 µM).
`Cc1cc(C(=O)Nc2ccc3c(c2)OCCO3)ccc1[N+](=O)[O-]` gave a solubility kinetic of under 0.3 µg/mL.
With `N#CC1(NC(=O)COc2ccccc2[N+](=O)[O-])CCCCC1` the solubility kinetic was over 45.5 µg/mL.
`Cc1ccccc1NC(=O)C(=O)NCCCN1CCOCC1` gave a solubility kinetic of over 45.8 µg/mL.
For `CC1CCCCC1NC(=O)COc1cccnc1[N+](=O)[O-]` (stereo not given), the solubility kinetic was over 44 µg/mL.
In the case of `OC(COc1ccc2c(c1)OCO2)CN1CCCCC1` (stereo not given), the solubility kinetic is reported as 32.5 µg/mL (≈ 116 µM).
`CCn1c(O)c(C=NC2CCCC(C)C2C)sc1=S` (stereo not given) gave a solubility kinetic of 4.3 µg/mL (≈ 14.4 µM).
With `CC(C)(C)c1ccc(NC(=O)c2c(F)cccc2Cl)cc1` the solubility kinetic was 1.1 µg/mL (≈ 3.6 µM).
For `COc1ccc(NC(=O)Nc2ccc([N+](=O)[O-])cc2)cn1`, the solubility kinetic was 0.9 µg/mL (≈ 3.12 µM).
`Cc1nccn1C[C@@H]1CCc2c(c3ccccc3n2C)C1=O` showed a solubility kinetic of 32.5 µg/mL (≈ 111 µM).
`CC1CCCC(NC(=O)COC(=O)c2ccc3c(c2)OCCO3)C1C` (stereo not given) showed a solubility kinetic of 5.3 µg/mL (≈ 15.3 µM).
Compound `Cc1ccc(C(=O)NC2CC(C)(C)NC(C)(C)C2)cc1Cl` has a solubility kinetic of 43.6 µg/mL (≈ 141 µM).
Work on `CCN1CCN(c2oc(/C=C/c3ccccc3)nc2C#N)CC1` yielded a solubility kinetic of 42.4 µg/mL (≈ 137 µM).
In the case of `O=C(COC(=O)c1ccc(F)cc1Cl)NC1CCCCCCC1`, the solubility kinetic is reported as 21.2 µg/mL (≈ 62 µM).
`COc1ccc(OCCSc2nc(C)nc3ccccc23)cc1` showed a solubility kinetic of 0.6 µg/mL (≈ 1.84 µM).
`Cc1ccc(S(=O)(=O)NCC(=O)OCCOc2ccccc2F)cc1` gave a solubility kinetic of 21.5 µg/mL (≈ 58.5 µM).
In the case of `CC(C)C(NC(=O)c1ccc(F)cc1)C(=O)NCC1CCCO1` (stereo not given), the solubility kinetic is reported as over 48.4 µg/mL.
`O=C(NC(=S)Nc1ccccc1C(=O)O)c1ccc2ccccc2c1` gave a solubility kinetic of 38.2 µg/mL (≈ 109 µM).
`FC(F)(F)c1cnc(N2CCSCC2)c(Cl)c1` showed a solubility kinetic of under 0.3 µg/mL.
With `Cc1ccc(-c2nc3ccccc3nc2Cl)cc1` the solubility kinetic was under 0.3 µg/mL.
